Marks after values point to notes of the source that are not given here. Where no end group is shown, it is not given here.
Assays:
[1] = tested on: db/db mice; experiment: in vivo efficacy in db/db mouse model, blood glucose; details: 10 nmol/kg s.c.
Experimental: Methods: 7-8 week old db/db mice were randomly divided into 3 groups (Model group, Semaglutide group, HEC-G20 group) according to blood glucose and body weight, with 9 mice in each group. For the groups of Semaglutide (Semaglutide was purchased from Novo Nordisk, lot number was JP52092) and HEC-G20, the corresponding drug was administered subcutaneously into the mice at a dose of 10 nmol/kg for each group, and for the Model group, the corresponding vehicle was injected subcutaneously. The Semaglutide group was dosed once a day, and the HEC-G20 group was dosed twice a week for a total of 4 weeks, and animal blood glucose was tested before each dose.

[2] = tested on: DIO mice; experiment: in vivo efficacy in DIO model: body weight, food intake, liver, blood biochemistry
Excerpt: Experimental methods: C57/BL6 mice were randomly divided into normal group NFD and model group HFD at the fifth week of age, and the normal group was fed with ordinary maintenance diet, while the model group was fed with high-fat diet D12492. Changes in body weight and food intake in mice were monitored every 3 weeks. After 16 weeks of feeding, the body weight of mice in the model group and the normal group were (47.9±3.4) g and (29.6±1.5) g, respectively, and the difference between the two groups was statistically significant. The normal group was divided into the control group, and the model group mice that were successfully modeled were divided into Vehicle group, Semaglutide group, HEC-G115 group and HEC-G124 group, with 10 mice in each group. For the groups of Semaglutide, HEC-G115 and HEC-G124, the corresponding drug was injected subcutaneously in each group, and PBS was injected subcutaneously in the Vehicle group. […] Weight and food intake were measured before each dose. After 3 weeks of administration, an intraperitoneal glucose tolerance test was performed. After 72 h of the last administration, samples were collected, liver weight was recorded, and liver pathological status and blood biochemical indexes were detected in each group.

[3] = target: T1, GIPR (Homo sapiens, UniProt P48546); experiment: cAMP assay, in vitro activity of polypeptides, HEK293-GIPR cells; format: cell-based; details: read-out: Ec50(nM) of the peptide GIPR
T1 construct: expressed in transfected cells; host or cells: HEK293 (pcDNA3.1, G418-selected single clone)
T1 sequence (P48546 22-466): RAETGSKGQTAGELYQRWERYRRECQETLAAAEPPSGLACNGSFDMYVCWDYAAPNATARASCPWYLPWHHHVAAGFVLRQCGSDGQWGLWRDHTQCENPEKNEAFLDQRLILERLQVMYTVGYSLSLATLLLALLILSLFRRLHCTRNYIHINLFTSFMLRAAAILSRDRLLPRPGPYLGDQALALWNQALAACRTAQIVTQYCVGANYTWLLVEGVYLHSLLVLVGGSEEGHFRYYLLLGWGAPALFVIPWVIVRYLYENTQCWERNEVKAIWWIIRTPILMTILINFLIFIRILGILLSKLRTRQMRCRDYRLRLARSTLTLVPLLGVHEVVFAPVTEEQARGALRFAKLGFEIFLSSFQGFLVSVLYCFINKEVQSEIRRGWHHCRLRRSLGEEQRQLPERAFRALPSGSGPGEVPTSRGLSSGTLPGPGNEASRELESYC
Experimental: (§1) The digested product was electrophoresed on 1% agarose gel and the target band was cut out with a clean blade, then a gel recovery kit was used to recover the target fragment. The specific experimental operations are carried out according to the kit instructions; • 3) The target fragment enzymatic digestion recovery product and vector plasmid pcDNA3.1 fragment were connected through T4 ligase and transformed into DH5a competent cells, then single colonies were isolated by spreading on plates, and the transformants were selected and expanded for enzyme digestion verification and sequencing verification. • 4) 200 mL of the bacterial liquid obtained in inoculation step 3) and verified by sequencing to contain the fusion protein of the target product was used for plasmid extraction. The kit used was PureLink HiPure Plasmid Maxiprep Kit, and according to the instructions. […] Finally, the ethanol precipitation method was used to recover the plasmid. • 5) The host cells were HEK293, one day before transfection, the cells were spread into a 6-well plate at a density of 2×10^6 cells/well, and the addition volume was 1 mL/well.
(§2) Using a cAMP detection kit (Cisbio, 62AM6PEC) to detect cAMP produced by the recipient cells according to the steps described in the operating instructions. […] If the mixture was not completely melted within 1.5 min, the cells were added dropwise to a 15 mL centrifuge tube containing 8 mL warm culture medium on a clean bench, then centrifuged at 900 rpm for 5 min, the supernatant was discarded, and the cells were re-suspended with 1 mL complete culture medium (15 times by pipetting).

[4] = target: GLP-1R (Homo sapiens, UniProt P43220); experiment: cAMP assay, in vitro activity of polypeptides, HEK293-GLP-1R cells; format: cell-based; parameters: expressed in transfected cells; host or cells: HEK293 (pcDNA3.1, G418-selected single clone); details: for EC50: HEK293-GLP-1R, cAMP, read-out: Ec50(nM) of the peptide GLP-1R; for GLP-1R agonistic activity: peptides
Chain of GLP-1R (P43220 24-463, species assumed): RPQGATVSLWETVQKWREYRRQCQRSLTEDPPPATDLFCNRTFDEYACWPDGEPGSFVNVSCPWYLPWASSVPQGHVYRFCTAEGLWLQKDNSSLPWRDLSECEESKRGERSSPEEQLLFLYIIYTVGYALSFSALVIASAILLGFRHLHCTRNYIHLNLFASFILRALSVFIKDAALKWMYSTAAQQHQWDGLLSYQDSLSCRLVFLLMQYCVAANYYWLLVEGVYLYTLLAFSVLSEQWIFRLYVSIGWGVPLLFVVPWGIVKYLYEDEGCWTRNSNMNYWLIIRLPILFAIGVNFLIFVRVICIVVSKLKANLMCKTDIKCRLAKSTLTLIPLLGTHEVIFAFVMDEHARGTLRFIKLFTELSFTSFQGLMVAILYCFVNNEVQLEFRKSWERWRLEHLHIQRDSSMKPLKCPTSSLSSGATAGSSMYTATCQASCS
Experimental: as §1, §2

[5] = long-term administration 10 nmol/kg s.c., 72 h after last administration
[6] = long-term administration 10 nmol/kg s.c., blood biochemistry

Semaglutide [reference compound]
Random blood glucose 1.5 h ([1]; 1.5 h): 15.9 ± 3.4 mM | Random blood glucose 5 h ([1]; 5 h): 15.4 ± 4.0 mM | Random blood glucose 7 h ([1]; 7 h): 16.3 ± 4.2 mM | Random blood glucose D 0 ([1]; Semaglutide once a day, HEC-G20 twice a week, D 0): 25.7 ± 3.7 mM | Random blood glucose D 3 ([1]; Semaglutide once a day, HEC-G20 twice a week, D 3): 11.6 ± 4.1 mM | Random blood glucose D 7 ([1]; Semaglutide once a day, HEC-G20 twice a week, D 7): 14.9 ± 4.2 mM | Random blood glucose D 10 ([1]; Semaglutide once a day, HEC-G20 twice a week, D 10): 17.1 ± 4.2 mM | Random blood glucose D 14 ([1]; Semaglutide once a day, HEC-G20 twice a week, D 14): 18.1 ± 3.1 mM | Random blood glucose D 17 ([1]; Semaglutide once a day, HEC-G20 twice a week, D 17): 18.5 ± 3.0 mM | Random blood glucose D 21 ([1]; Semaglutide once a day, HEC-G20 twice a week, D 21): 18.0 ± 3.3 mM | Random blood glucose D 24 ([1]; Semaglutide once a day, HEC-G20 twice a week, D 24): 19.9 ± 2.2 ^a mM | Cumulative food intake D 7-10 ([2]; 10 nmol/kg s.c. repeated, D 7-10): 15.7 g/pcs | Weight growth rate D 10 ([2]; 10 nmol/kg s.c. repeated, D 10): −17.6 ± 5.1% | Cumulative food intake D 11-13 ([2]; 10 nmol/kg s.c. repeated, D 11-13): 20.7 g/pcs | Weight growth rate D 13 ([2]; 10 nmol/kg s.c. repeated, D 13): −21.3 ± 5.8% | Cumulative food intake D 14-16 ([2]; 10 nmol/kg s.c. repeated, D 14-16): 27.9 g/pcs | Weight growth rate D 16 ([2]; 10 nmol/kg s.c. repeated, D 16): −22.3 ± 5.3% | Cumulative food intake D 17-19 ([2]; 10 nmol/kg s.c. repeated, D 17-19): 35.7 g/pcs | Weight growth rate D 19 ([2]; 10 nmol/kg s.c. repeated, D 19): −21.6 ± 5.6% | Cumulative food intake D 20-22 ([2]; 10 nmol/kg s.c. repeated, D 20-22): 41.8 g/pcs | Weight growth rate D 22 ([2]; 10 nmol/kg s.c. repeated, D 22): −24.2 ± 6.2% | Cumulative food intake D 23-27 ([2]; 10 nmol/kg s.c. repeated, D 23-27): 55.0 ^a g/pcs | Weight growth rate D 25 ([2]; 10 nmol/kg s.c. repeated, D 25): −23.2 ± 6.0^a % | Cumulative food intake D 0 ([2]; 10 nmol/kg s.c., D 0): 0.7 g/pcs | Weight growth rate D 0 ([2]; 10 nmol/kg s.c., D 0): 0.0 ± 0.0% | Cumulative food intake D 1 ([2]; 10 nmol/kg s.c., D 1): 1.8 g/pcs | Weight growth rate D 1 ([2]; 10 nmol/kg s.c., D 1): −5.3 ± 1.0% | Cumulative food intake D 2 ([2]; 10 nmol/kg s.c., D 2): 3.2 g/pcs | Weight growth rate D 2 ([2]; 10 nmol/kg s.c., D 2): −7.2 ± 1.2% | Cumulative food intake D 3 ([2]; 10 nmol/kg s.c., D 3): 5.3 g/pcs | Weight growth rate D 3 ([2]; 10 nmol/kg s.c., D 3): −8.2 ± 1.6% | Cumulative food intake D 4 ([2]; 10 nmol/kg s.c., D 4): 8.2 g/pcs | Weight growth rate D 4 ([2]; 10 nmol/kg s.c., D 4): −7.4 ± 2.8% | Cumulative food intake D 5 ([2]; 10 nmol/kg s.c., D 5): 10.2 g/pcs | Weight growth rate D 5 ([2]; 10 nmol/kg s.c., D 5): −6.7 ± 3.7% | Cumulative food intake D 6 ([2]; 10 nmol/kg s.c., D 6): 12.5 g/pcs | Weight growth rate D 6 ([2]; 10 nmol/kg s.c., D 6): −8.2 ± 3.8% | Weight growth rate D 7 ([2]; 10 nmol/kg s.c., D 7): −8.1 ± 4.7% | Liver ([2]; liver weight, long-term administration 10 nmol/kg s.c., 72 h after last administration): 1.0 ± 0.2 ^a g | Body weight [2, 5]: 33.0 ± 2.7^a g | Liver index [2, 5]: 3.0 ± 0.0 ^a % | ALT [2, 6]: 19.3 ± 4.3 ^a U/L | AST [2, 6]: 109.4 ± 9.2 ^a U/L | CHOL [2, 6]: 2.7 ± 0.4 ^a mmol/L | TRIGL [2, 6]: 0.7 ± 0.1 mmol/L

YGEGTFTSDYSILLDKIAQREFIEWLLAGGPSSGAPPPS [CG126, YGEGTFTSDYSILLDKIAQREFIEWLLAG GPSSGAPPPS]
EC50 [3]: 0.027 nM | EC50 [4]: 0.918 nM

YSEGTFTSDYSILLDKIAQQDFVEWLLAGGPSSGAPPPS [CG133, YSEGTFTSDYSILLDKIAQQDFVEWLLAG GPSSGAPPPS]
EC50 [3]: 0.017 nM | EC50 [4]: 8.18 nM | GLP-1R agonistic activity [4]: weaker GLP-1R agonistic activities

YSEGTFTSDYSILLDKIAQQEFIEWLIAGGPSSGAPPPS [CG135, YSEGTFTSDYSILLDKIAQQEFIEWLIAG GPSSGAPPPS]
EC50 [3]: 0.015 nM | EC50 [4]: 0.558 nM

YSEGTFTSDYSILLDKIAQQEFIEWLLAGGPSSGAPPPS [CG134, YSEGTFTSDYSILLDKIAQQEFIEWLLAG GPSSGAPPPS]
EC50 [3]: 0.012 nM | EC50 [4]: 2.15 nM | GLP-1R agonistic activity [4]: weaker GLP-1R agonistic activities

YSEGTFTSDYSILLDKIAQRAFIEWLLAGGPSSGAPPPS [CG121, YSEGTFTSDYSILLDKIAQRAFIEWLLAG GPSSGAPPPS]
EC50 [3]: 0.018 nM | EC50 [4]: 0.322 nM

YSEGTFTSDYSILLDKIAQRAFVQWLIAGGPSSGAPPPS [CG125, YSEGTFTSDYSILLDKIAQRAFVQWLIAG GPSSGAPPPS]
EC50 [3]: 0.073 nM | EC50 [4]: 0.205 nM

YSEGTFTSDYSILLDKIAQREFIEWLIAGGPSSGAPPPS [CG122, YSEGTFTSDYSILLDKIAQREFIEWLIAG GPSSGAPPPS]
EC50 [3]: 0.016 nM | EC50 [4]: 0.191 nM

YSEGTFTSDYSILLDKIAQREFIEWLLAGGPSSGAPPPS [CG115, YSEGTFTSDYSILLDKIAQREFIEWLLAG GPSSGAPPPS]
EC50 [3]: 0.005 nM | EC50 [4]: 0.291 nM

YSEGTFTSDYSILLDKIAQREFVQWLIAGGPSSGAPPPS [CG124, YSEGTFTSDYSILLDKIAQREFVQWLIAG GPSSGAPPPS]
EC50 [3]: 0.041 nM | EC50 [4]: 0.232 nM

YSEGTFTSDYSILLDKIAQREFVQWLLAGGPSSGAPPPS [CG123, YSEGTFTSDYSILLDKIAQREFVQWLLAG GPSSGAPPPS]
EC50 [3]: 0.044 nM | EC50 [4]: 0.879 nM

YSEGTFTSDYSILLDKKAQQDFIEWLIAGGPSSGAPPPS [CG137, YSEGTFTSDYSILLDKKAQQDFIEWLIAG GPSSGAPPPS]
EC50 [3]: 0.061 nM | EC50 [4]: 0.25 nM

YSEGTFTSDYSILLDKKAQQDFIEWLLAGGPSSGAPPPS [CG136, YSEGTFTSDYSILLDKKAQQDFIEWLLAG GPSSGAPPPS]
EC50 [3]: 0.05 nM | EC50 [4]: 1.11 nM

YSEGTFTSDYSILLDKKAQRDFIEWLLAGGPSSGAPPPS [CG127, YSEGTFTSDYSILLDKKAQRDFIEWLLAG GPSSGAPPPS]
EC50 [3]: 0.084 nM | EC50 [4]: 0.364 nM

Source: patent US20250223331A1, “GLP-1/GIP DUAL-TARGETED POLYPEPTIDE AND FUSION PROTEIN AND APPLICATIONS THEREOF” (SUNSHINE LAKE PHARMA CO., LTD., priority 2021, published 2025)
